Reference: article PMC3038380 (Bioorganic & Medicinal Chemistry, 2010)

Assays:
[1] = NMR chemical shift titration with DPC-d38; assay type: binding; conditions: pH 5.0, 1.0 mM octanoic acid or 1.14 mM ghrelin
[2] = free C8 fatty acid; cited from earlier work

CCCCCCCC(=O)O [octanoic acid]
unitary Gibbs free energy ΔGu0 of binding to DPC micelles [1]: -8.6 kcal/mol
free energy for the transfer from aqueous into a hydrophobic environment [2]: -1.5 kcal/mol
